Laboratory results as given in patent publication US4810709A, “Nintrovincaminic acid derivatives having pharmaceutical utility” (Richter Gedeon Vegyeszefi Gyar R.T., priority 1984, dated 1989).
In brackets after ≈: the same amount, converted by molar mass. Structures can show the parent of a compound that is named as a salt. Where two headings read alike, the source gives them in different places.

Tests used:
internal carotid artery = experiment: cerebral blood flow in the internal carotid artery of anaesthetized dogs (vasodilating effect); assay type: in vivo; settings: 1 mg/kg of body-weight intravenous, chloralose-pentobarbital anaesthetized dogs
Protocol: (§1) The vasodilating effect was studied in dogs anaesthetized by a chloralose-pentobarbital mixture. […] Electromagnetic flow meters were used for measuring the blood flow. The substances under test were intravenously administered in a dose of 1 mg/kg of body-weight to 6 dogs and the percentage changes of the parameters measured were evaluated. Ethyl (+)-apovincamate, a commonly used therapeutic cerebral vasodilator was employed as reference drug.

femoral artery = experiment: extremital blood flow in the femoral artery of anaesthetized dogs (vasodilating effect); assay type: in vivo; settings: 1 mg/kg of body-weight intravenous, chloralose-pentobarbital anaesthetized dogs
Protocol: as §1

[1] = system: conscious mice under normobaric hypoxia; experiment: antihypoxic activity on conscious mice under normobaric hypoxia; assay type: in vivo; settings: 50 mg/kg i.p.; for Time of survival, % / Time of survival, Mean ± deviation: 96% nitrogen and 4% oxygen; for Time of survival, %: increase over control; for Time of survival, Mean ± deviation: 30 minutes before, control 6.0 ± 1.04 min; for Protection: protected = alive for twofold time of untreated animals
Protocol: According to one method, the antihypoxic activity was studied on conscious mice under normobaric hypoxia. Five male mice were placed in a glass cylinder of 3 liters volume flown through by a gas mixture containing 96% of nitrogen and 4% of oxygen. The time interval from the allocation up to the perishment of the animals was measured for 15 minutes as a maximum. The animals were considered as protected when they were alive for a twofold time length as compared to the time of perishment of the untreated animals. The compounds under test were intraperitoneally administered to 10 animals each in a dose of 50 mg/kg of body-weight 30 minutes before allocating in the glass cylinder.

[2] = system: isolated guinea pig ileum; experiment: Inhibition of barium-chloride-induced contraction of guinea pig ileum (spasmolytic activity); settings: for IC50: Cavia porcellus, read-out: ED50, inhibition of barium-chloride-induced contraction of guinea pig ileum
Protocol: The spasmolytic activity of the compounds was determined by using the traditional method, i.e. on the isolated guinea pig ileum [Magnus, R., Pflugers Arch. 102, 123 (1904)]. Papaverine and ethyl (+)-apovincamate used as therapeutic spasmolytics were used as reference drugs.

mice [3] = experiment: maximal electroshock model (anticonvulsive); assay type: in vivo; settings: Mus musculus, po; 20 mA, 0.2 sec.; p.o.; read-out: Anticonvulsive effect, Max. electroshock ED50
Text: On using the maximal electroshock model [Swinyard E. A. et at.: J. Pharmacol. Exp. Ther. 106, 319 (1959)], a shock (20 mA, 0.2 sec. HSE Shock Equipment Type 207) was given to mice weighing 22 to 24 g by using corneal electrodes. The animals were considered as protected the tonic extension of the lower extremities of which were abolished.

hypobaric hypoxia test = assay type: in vivo; settings: 1 h; oral, one hour before, 170 Hgmm; protected = survival longer by 100% than control
Protocol: (§2) According to the hypobaric hypoxia test [Baumel J. et al.: Proc. Soc. Bio. N.Y. 132, 629 (1969)], the animals were starved for 16 hours, then treated orally and one hour following the treatment they were allocated in an exsiccator where the pressure was decreased to 170 Hgmm within 20 seconds. The time of survival was registered from this time point up to the last respiration. The animals were considered as protected when they were alive for a time longer by 100% than the average time of survival of the control group. The ED50 value (i.e. the dose which was effective in 50%) was calculated from the percentage of the protected animals by using the probit analysis method.

asphyxic anoxia test = assay type: in vivo; settings: 1 h; oral, one hour before; protected = survival longer by 30% than control
Protocol: According to the asphyxic anoxia test [Caillard O. et al.: Life Sci. 16, 1607 (1975(], the animals were starved for 16 hours, then treated orally, and one hour following the treatment they were allocated in tightly closed glass bottles of 100 ml volume. The time of survival was registered as the time interval from closing the bottle up to the last respiration. The animals were considered as protected when they were alive for a time longer by 30% than the average time of survival of the control group.
as §2

mice [4] = experiment: metrazole seizure method (anticonvulsive); assay type: in vivo; settings: Mus musculus, po; 125 mg/kg s.c. pentylenetetrazole; p.o.; read-out: Anticonvulsive effect, Metrazole seizure ED50
Protocol: On using the metrazole seizure method [Everett, G. M. and Richards, R. K.: J. Pharmacol. Exp. Ther., 81, 402 (1944)], a subcutaneous dose of 125 mg/kg of pentylenetetrazole was administered to mice after pre-treatment. The persistant clonic convulsions as well as the tonic extensory convulsions abolished by the treatment were registered.

in vivo [5] = experiment: in vivo; set-up: species or system mice; settings: mouse, po
Text: On determining the muscle relaxant activity (traction test), male mice weighing 18 to 22 g were suspended by their upper legs on a horizontal wire of 5 mm in diameter.

in vivo [6] = settings: po
Protocol: On using the muscle incoordination model (rotarod method) [H. Kwibara et al.: Japan J. Pharmacol. 27, 117 (1977)], after a previous training the animals were selected which could […] for 120 seconds on a horizontal rod of 20 mm in diameter rotating with 12 rpm. A muscle-incoordinating action was stated when the animals fell down from the rotating rod within the time limits.

[7] = isolated guinea pig ileum, barium chloride

Compound	Circulatory effects (change in %): Carotid artery flow (internal carotid artery)	Circulatory effects (change in %): Femoral flow (femoral artery)	Time of survival, % [1] [%]	Time of survival, Mean ± deviation [1] [min]	Protection [1] [%]	ED50 (hypobaric hypoxia test) [mg/kg]	ED50 (asphyxic anoxia test) [mg/kg]	also measured
CCC12C=C(C(=O)OCCO)n3c4c(c5c([N+](=O)[O-])cccc53)CCN(CCC1)C42 (single isomer, unassigned) [2-Hydroxyethyl 9-nitroapovincamate, 2-hydroxyethyl 9-nitroapovincamate]	+45%	+10%	–	–	–	–	–	–
CCOC(=O)C1=CC2(CC)CCCN3CCc4c(n1c1cccc([N+](=O)[O-])c41)C32 (single isomer, unassigned) [Ethyl 9-nitroapovincamate, ethyl 9-nitroapovincamate]	+95%	0%	123	13.4 ± 2.37	80	–	–	IC50 [2, 7]: 1 µg/mL (≈ 2.53 µM)
CCOC(=O)C1=CC2(CC)CCCN3CCc4c(n1c1cc([N+](=O)[O-])ccc41)C32 (single isomer, unassigned) [Ethyl 11-nitroapovincamate, ethyl 11-nitroapovincamate]	–	–	83	11.0 ± 3.35	50	–	–	–
CCOC(=O)C1=CC2(CC)CCCN3CCc4c(n1c1cccc([N+](=O)[O-])c41)C32 (single isomer, unassigned) [ethyl 9-nitroapovincamate monohydrochloride]	–	–	–	–	–	> 50	42.7	ED50 (mice [3]): 25.6 mg/kg; ED50 (mice [4]): 27.6 mg/kg; TD50 (in vivo [5]): > 180 mg/kg; TD50 (in vivo [6]): > 180 mg/kg
CCOC(=O)C1=C[C@]2(CC)CCCN3CCc4c(n1c1ccccc41)[C@@H]32 [Ethyl (+)-apovincamate, reference compound]	+30%	+15%	7	6.4 ± 1.58	–	> 50	> 50	IC50 [2, 7]: 2 µg/mL (≈ 5.71 µM)
CCC1(c2ccccc2)NC(=O)N(C)C1=O (centres unmarked) [Mephenytoin]	–	–	–	–	–	> 80	> 80	TD50 (in vivo [6]): 78.6 mg/kg
COc1ccc(Cc2nccc3cc(OC)c(OC)cc23)cc1OC [Papaverine, reference compound]	–	–	–	–	–	–	–	IC50 [2]: 5.4 µg/mL (≈ 15.9 µM)
CCCOC(=O)C1=C[C@]2(CC)CCCN3CCc4c(n1c1cccc([N+](=O)[O-])c41)[C@@H]32 [Propyl 9-nitroapovincamate]	–	–	–	–	–	–	–	ED50, inhibition of barium-chloride-induced contraction of guinea pig ileum [2, 7]: 0.2 µg/mL
CC[C@]12CCCN3CCc4c(n(c5ccccc45)[C@@](O)(C(=O)OC)C1)[C@@H]32 [Vincamine, reference compound]	–	–	2	6.1 ± 1.30	–	–	–	–
Acetoxyethyl 9-nitroapovincamate	–	–	68	10.1 ± 3.51	30	–	–	ED50, inhibition of barium-chloride-induced contraction of guinea pig ileum [2, 7]: 0.4 µg/mL
